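Interpolation was linear, between the two tested concentrations surrounding the appropriate level; five concentrations were tested over 48 hours in 96-well plates. GI50 marks 50% less growth. TGI is the concentration that stops growth completely.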
What was measured:
Assay in all cases: NCI-60 cell line screen, 48 h
[1] = system: MALME-3M melanoma
[2] = system: SNB-75 CNS
[3] = system: HCT-116 colon
[4] = system: MCF7 breast
[5] = system: RXF 393 renal
[6] = system: MDA-MB-468 breast
[7] = system: ACHN renal
[8] = system: NCI-H460 lung
[9] = system: SF-268 CNS
[10] = system: CAKI-1 renal
[11] = system: IGROV1 ovarian
[12] = system: SK-OV-3 ovarian
[13] = system: NCI-H23 lung
[14] = system: HOP-62 NSCLC
[15] = system: U251 CNS
[16] = system: OVCAR-4 ovarian
[17] = system: SN12C renal
[18] = system: TK-10 renal
[19] = system: SK-MEL-5 melanoma
[20] = system: UACC-257 melanoma
[21] = system: SF-295 CNS
[22] = system: CCRF-CEM leukemia
[23] = system: A498 renal
[24] = system: PC-3 prostate
[25] = system: HOP-92 NSCLC
[26] = system: BT-549 breast
[27] = system: HL-60(TB) leukemia
[28] = system: COLO 205 colon
[29] = system: UO-31 renal
[30] = system: HCC-2998 colon
[31] = system: EKVX NSCLC
[32] = system: OVCAR-3 ovarian
[33] = system: K-562 leukemia
[34] = system: SNB-19 CNS
[35] = system: 786-0 renal
[36] = system: NCI/ADR-RES ovarian
[37] = system: A549 NSCLC
[38] = system: HCT-15 colon
[39] = system: KM12 colon
[40] = system: SW-620 colon
[41] = system: MDA-MB-435
[42] = system: RPMI-8226 leukemia
[43] = system: OVCAR-5 ovarian
[44] = system: SR leukemia
[45] = system: SF-539 CNS
[46] = system: HS 578T breast
[47] = system: MDA-MB-231 breast
[48] = system: SK-MEL-2 melanoma
[49] = system: T-47D breast
[50] = system: M14 melanoma
[51] = system: HT29 colon
[52] = system: LOX IMVI melanoma
[53] = system: NCI-H522 lung
[54] = system: MOLT-4 leukemia
[55] = system: DU-145 prostate
[56] = system: OVCAR-8 ovarian
[57] = system: SK-MEL-28 melanoma
[58] = system: NCI-H226 lung
[59] = system: UACC-62 melanoma

## Cc1ccc(C(=O)C(c2c[nH]c3ccccc23)c2c[nH]c3ccccc23)cc1
[1]
  GI50: 16 µM
  TGI: 31.2 µM
[2]
  GI50: 7.91 µM
  TGI: 21 µM
[3]
  GI50: 3.76 µM
  TGI: 15.2 µM
[4]
  GI50: 3.77 µM
  TGI: 15.7 µM
[5]
  GI50: 12.5 µM
  TGI: 29.6 µM
[6]
  GI50: 14.1 µM
  TGI: 29 µM
[7]
  GI50: 10.9 µM
  TGI: 22.8 µM
[8]
  GI50: 11.2 µM
  TGI: 28.7 µM
[9]
  GI50: 10.6 µM
  TGI: 25.4 µM
[10]
  GI50: 9.39 µM
  TGI: 21.4 µM
[11]
  GI50: 11.7 µM
  TGI: 26.5 µM
[12]
  GI50: 15.9 µM
  TGI: 33 µM
[13]
  GI50: 11.5 µM
  TGI: 25.9 µM
[14]
  GI50: 18 µM
  TGI: 42.1 µM
[15]
  GI50: 15.9 µM
  TGI: 30.9 µM
[16]
  GI50: 13.2 µM
  TGI: 28.2 µM
[17]
  GI50: 11.1 µM
  TGI: 24.2 µM
[18]
  GI50: 24.8 µM
  TGI: 40.6 µM
[19]
  GI50: 15.5 µM
  TGI: 29.2 µM
[20]
  GI50: 13.2 µM
  TGI: 26.8 µM
[21]
  GI50: 14.8 µM
  TGI: 28.1 µM
[22]
  GI50: 3.02 µM
  TGI: > 100 µM
[23]
  GI50: 20.5 µM
  TGI: 35.9 µM
[24]
  GI50: 6.96 µM
  TGI: 28.3 µM
[25]
  GI50: 16.3 µM
  TGI: 33.3 µM
[26]
  GI50: 12.8 µM
  TGI: 26.5 µM
[27]
  GI50: 6.82 µM
  TGI: 38.2 µM
[28]
  GI50: 17.1 µM
  TGI: 33 µM
[29]
  GI50: 11.3 µM
  TGI: 23.4 µM
[30]
  GI50: 13.7 µM
  TGI: 27 µM
[31]
  GI50: 13.7 µM
  TGI: 27 µM
[32]
  GI50: 11.3 µM
  TGI: 23.6 µM
[33]
  GI50: 3.88 µM
  TGI: > 100 µM
[34]
  GI50: 16.9 µM
  TGI: 31.4 µM
[35]
  GI50: 12.9 µM
  TGI: 29.1 µM
[36]
  GI50: 13.1 µM
  TGI: 32.2 µM
[37]
  GI50: 15 µM
  TGI: 33.1 µM
[38]
  GI50: 4.73 µM
  TGI: 17.6 µM
[39]
  GI50: 16.7 µM
  TGI: 31.1 µM
[40]
  GI50: 3.55 µM
  TGI: 13.5 µM
[41]
  GI50: 15.1 µM
  TGI: 29.7 µM
[42]
  GI50: 8.31 µM
  TGI: > 100 µM
[43]
  GI50: 14.7 µM
  TGI: 29 µM
[44]
  GI50: 11 µM
  TGI: 77.6 µM
[45]
  GI50: 15.2 µM
  TGI: 29 µM
[46]
  GI50: 16.6 µM
  TGI: 47.1 µM
[47]
  GI50: 14.1 µM
  TGI: 31 µM
[48]
  GI50: 14.5 µM
  TGI: 28.7 µM
[49]
  GI50: 9.57 µM
  TGI: 28.4 µM
[50]
  GI50: 12.6 µM
  TGI: 29.1 µM
[51]
  GI50: 6.98 µM
  TGI: 22.1 µM
[52]
  GI50: 3.21 µM
  TGI: 13.8 µM
[53]
  GI50: 10.7 µM
  TGI: 24.1 µM
[54]
  GI50: 3.95 µM
  TGI: 80.4 µM
[55]
  GI50: 14.4 µM
  TGI: 27.8 µM
[56]
  GI50: 16.7 µM
  TGI: 34.1 µM
[57]
  GI50: 14.5 µM
  TGI: 28.1 µM
[58]
  GI50: 13.8 µM
  TGI: 29.4 µM
[59]
  GI50: 13.9 µM
  TGI: 27.9 µM

## CC(=O)NCC1=C(C)C=C2C(=O)[C@](C)(O)C3(CC3)C(C)=C21
[1]
  GI50: 0.0602 µM
  TGI: 0.181 µM
[2]
  GI50: 0.0197 µM
  TGI: 0.0735 µM
[3]
  GI50: 0.0509 µM
[4]
  GI50: 0.214 µM
  TGI: > 20.6 µM
[5]
  GI50: 0.0164 µM
  TGI: 0.0328 µM
[6]
  GI50: < 0.0136 µM
  TGI: 0.0303 µM
[7]
  GI50: 0.0228 µM
  TGI: 0.0578 µM
[8]
  GI50: 0.0225 µM
  TGI: 0.132 µM
[9]
  GI50: 0.0332 µM
  TGI: 0.577 µM
[10]
  GI50: 0.0404 µM
  TGI: 0.791 µM
[11]
  GI50: 0.028 µM
  TGI: 0.0804 µM
[12]
  GI50: 0.0301 µM
  TGI: 0.0993 µM
[13]
  GI50: 0.0159 µM
  TGI: 0.0372 µM
[14]
  GI50: 0.0246 µM
  TGI: 0.0761 µM
[15]
  GI50: 0.051 µM
[16]
  GI50: 0.071 µM
  TGI: 0.322 µM
[18]
  GI50: 0.0364 µM
[19]
  GI50: 0.0704 µM
  TGI: 0.216 µM
[20]
  GI50: 0.0934 µM
  TGI: 0.29 µM
[21]
  GI50: 0.0262 µM
  TGI: 0.122 µM
[22]
  GI50: 13.5 µM
  TGI: > 84.9 µM
[23]
  GI50: 0.0257 µM
  TGI: 0.0655 µM
[24]
  GI50: 0.068 µM
  TGI: 0.898 µM
[25]
  GI50: 0.0261 µM
  TGI: 0.0702 µM
[26]
  GI50: 0.0277 µM
  TGI: 0.0991 µM
[27]
  GI50: 0.0279 µM
  TGI: 0.876 µM
[28]
  GI50: 0.039 µM
  TGI: 0.162 µM
[30]
  GI50: 0.0287 µM
  TGI: 0.103 µM
[31]
  GI50: 0.116 µM
  TGI: 0.356 µM
[32]
  GI50: 0.0397 µM
  TGI: 0.472 µM
[33]
  GI50: 15 µM
  TGI: > 100 µM
[34]
  GI50: 0.163 µM
  TGI: 0.751 µM
[36]
  GI50: 0.0648 µM
  TGI: 0.323 µM
[37]
  GI50: 0.0312 µM
  TGI: 0.33 µM
[38]
  GI50: 0.044 µM
  TGI: 0.325 µM
[39]
  GI50: 0.257 µM
  TGI: 5.85 µM
[40]
  GI50: 13.4 µM
  TGI: 38.7 µM
[42]
  GI50: 22.9 µM
  TGI: > 83.5 µM
[43]
  GI50: 0.0342 µM
  TGI: 0.24 µM
[44]
  GI50: 5.7 µM
  TGI: > 100 µM
[45]
  GI50: 0.0225 µM
  TGI: 0.0565 µM
[46]
  GI50: 0.204 µM
  TGI: 0.678 µM
[47]
  GI50: 0.067 µM
  TGI: 0.306 µM
[48]
  GI50: 0.179 µM
  TGI: 0.346 µM
[49]
  GI50: 0.0438 µM
  TGI: 0.84 µM
[50]
  GI50: 0.0712 µM
  TGI: 0.22 µM
[51]
  GI50: 0.0356 µM
[52]
  GI50: 0.136 µM
  TGI: 0.354 µM
[53]
  GI50: 0.254 µM
  TGI: 0.997 µM
[54]
  GI50: 8.44 µM
  TGI: > 100 µM
[55]
  GI50: 0.0275 µM
  TGI: 0.233 µM
[57]
  GI50: 0.125 µM
  TGI: 0.293 µM
[58]
  GI50: 0.143 µM
  TGI: 0.615 µM
[59]
  GI50: 0.132 µM
  TGI: 0.278 µM
